From publication PMC7054612, “In vitro and in vivo pharmacokinetic characterization of LMT-28 as a novel small molecular interleukin-6 inhibitor” (Asian-Australasian Journal of Animal Sciences, 2019)
≈ marks a conversion by molar mass, not a printed value. Read-outs that look alike come from different tables or passages of the source.

Assays:
[1] = system: IL-6-induced STAT3 activation; experiment: Western blot analysis for inhibitory effect on IL-6-induced signaling (p-STAT3) in HepG2 cells; type: cell-based; conditions: HepG2 cells pre-treated with LMT-28 (1, 3, 10, 30, 100 μM) for 1 h, then IL-6 10 ng/mL for 10 min; Western blotting
Experimental: HepG2 cells were seeded in MEM media (Welgene, Gyeongsan, Korea) with 10% (v/v) feta bovine serum, streptomycin (100 U/mL), and penicillin (100 U/mL; Life Technologies, Carlsbad, CA, USA). After seeding, cells were starved overnight, treated with LMT-28 for 1 h, and stimulated with IL-6 (10 ng/mL; R&D Systems, Minneapolis, MN, USA) for 10 min. Cells were treated with cell lysis buffer (Promega, Madison, WI, USA) for 30 min on ice. Cell lysates were separated on an 8% sodium dodecyl sulfate-polyacrylamide gel electrophoresis gel, then transferred to nitrocellulose membranes (Schleicher & Schuell, Dassel, Germany). The membranes were blocked overnight in Tris-buffered solution (50 mM Tris-HCl [pH 7.4], 150 mM NaCl, 0.1% Tween 20) containing 5% nonfat dry milk at 4°C and then incubated for 1 h with the appropriate primary Abs against p-STAT3 (MilliporeSigma, Burlington, MA, USA) or α-tubulin in Tris-buffered solution (TBST; 50 mM Tris-HCl [pH 7.4], 150 mM NaCl, 0.1% Tween 20) containing 5% nonfat dry milk at room temperature. The membranes were washed (10 min, five times) and incubated for 1 h with horseradish peroxidase-conjugated secondary Abs diluted to 1:6,000. After 10 washes, the membranes were incubated with enhanced chemiluminescence reagents (MilliporeSigma, USA) and chemiluminescent signals were visualized using X-ray film.

[2] = Lipophilicity (LogP) by GLpKa, D-PAS method; type: physicochemical
Experimental: (§1) The shake-flask method was applied to measure the equilibrium solubility of LMT-28 [16, 17]. Excess amount of LMT-28 was added into the water and the suspension was shaken at 25°C during 24 h in a flask for equilibrium solubility. The solution, then, was filtered and the concentration of LMT-28 in the filtered solution was quantified using ultra HPLC (ThermoFisher Scientific, Waltham, MA, USA) at wavelength 254 nm. The lipophilicity of LMT-28 was measured by using GLpKa (Pion, Cambridge, MA, USA) based on dip-probe absorption spectroscopy (D-PAS) method. The resultant values were calculated by LogP software (Pion, USA) and the computational predictions for number of hydrogen bond donors, hydrogen bond acceptors, rotatable bonds and predicted polar surface area (PSA) and LogS were made using Percepta software (ACD/Labs; Toronto, Canada).

[3] = Equilibrium solubility in water, 24 h shake-flask method; type: physicochemical; conditions: thermodynamic from solid, 25°C
Experimental: as §1

[4] = Metabolic stability in rat liver microsomes; type: in vitro ADME; conditions: pH 7.4
Experimental: (§2) Metabolic stability using rat and human liver microsomes (Corning Gentest, USA) of LMT-28 was performed according to previous reported protocol. In brief, NADPH regeneration solution (Corning Gentest, USA) was added to initiate the metabolic reaction after mixing LMT-28 (final concentrations; 1 μM) with human or rat liver microsomes (0.5 mg protein/mL) in 100 mM potassium phosphate buffer (pH 7.4). After incubation at 37°C at 0, 10, 30, and 60 min, the reaction was terminated by adding three times of ice-cold acetonitrile containing internal standard (carbamazepine 10 ng/mL). After mixing by vortex and centrifugation at 10,000 g for 5 min at 4°C, the supernatants were transferred to fresh LC vials. Samples (5 μL) were analyzed by directly injection into a liquid chromatography-tandem mass spectrometry (LC-MS/MS) system for the quantification of LMT-28.
(§3) The metabolic half-life and in vitro intrinsic clearance of LMT-28 were calculated by next equations [19].
(§4) Half-life (t1/2) (h)=-0.693/KCLint,in vitro(μL/min/mg protein)=(0.693/t1/2,microsomal)×(μL incubation/mg microsomal protein)CLint,in vivo(mL/min/kg)=(0.693/t1/2,microsomal)×(mL incubation/mg microsomal protein)×(mg microsomal protein/g liver)×(g liver/kg body weight)
(§5) where K is the elimination rate constant of LMT-28 in the microsomal metabolic reaction, half-life (t1/2) is microsomal metabolic half-life, CLint, in vitro is in vitro intrinsic clearance, and CLint, in vivo is in vivo intrinsic clearance. The liver weight relative to the body weight in the rat and human are 40 and 21 g/kg, respectively.

[5] = Metabolic stability in human liver microsomes; type: in vitro ADME; conditions: pH 7.4
Experimental: as §2, §3, §4, §5

[6] = MDCK cell permeability assay; type: in vitro ADME, canine; conditions: dog, MDCK cell monolayers
Experimental: In order to determine cell permeability of LMT-28, Madin-Darby canine kidney (MDCK) cells were cultured and seeded at a density of 6×10^4cells/cm^2 in 12-well Transwell plates. After checking cell monolayer integrity, the transepithelial electrical resistance (TEER) values (>500 ohms) were measured using an EVOM epithelial voltohmmeter (World Precision Instruments, Sarasota, FL, USA). After pre-incubation for 30 min at 37°C, LMT-28 (final concentrations of 2, 10, and 50 μM) was added to the donor wells in transport assay system. Sample aliquots (100 μL) were collected every 30 min for 120 min, and the same volume of fresh buffer added. The aliquots were stored at −20°C until quantitative analysis of LMT-28 concentrations by LC–MS/MS system. The apparent permeability coefficient (Papp, cm/s) was calculated as following equation: […]
where dQ/dt is the permeation rate across cell monolayer, A is the surface area of the monolayer (0.33 cm^2), and C0 is the initial donor concentration.

[7] = Plasma protein binding assay; type: in vitro ADME
[8] = In vivo pharmacokinetic study in male BALB/c mice; conditions: for AUC(0-t): n = 4, read-out: AUC8h; for half-life: n = 4, read-out: t1/2 (terminal elimination half-life) (converted)
Experimental: To evaluate in vivo pharmacokinetics in mice, LMT-28 was dissolved in phosphate-buffered saline (pH 7.4) containing 5% (w/v) carboxymethyl cellulose (MilliporeSigma, USA) and administered orally by using oral needle and intravenously in the mouse tail vein at the dose of 5 mg/kg to male BALB/c mice (22 to 25 g) after overnight fasting. Blood samples (50 μL) were collected at 0.5, 1, 2, 4, 6, and 8 h after oral administration of LMT-28. After taking the blood samples from mice, the samples were centrifuged to obtain plasma samples at 4°C and 10,000 g and obtained plasma samples were stored at −20°C. These plasma samples (25 μL) were used for the quantification of LMT-28 concentration in mice.
(§6) The concentrations of LMT-28 in plasma or microsomal reaction solution were determined by LC-MS/MS. For the sample preparation before LC-MS/MS analysis, three times (75 μL) of acetonitrile containing internal standard (carbamazepine 10 ng/mL) were added to 25 μL aliquots of the plasma samples. The samples were vortex-mixed and centrifuged at 10,000 g for 5 min at 4°C for the protein precipitation. The supernatant (90 μL) was transferred to LC vials and 5 μL was injected onto a LC-MS/MS system.
(§7) Mass spectrometric detection of LMT-28 was performed on an API 4000 Qtrap mass spectrometer (AB Sciex, Foster City, CA, USA) equipped with a positive electrospray ionization source. The chromatographic separation was performed on Hypersil Gold C18 column (50 mm×2.1 mm i.d., 3 μm particle size; ThermoFisher Scientific, USA) with a flow rate of 0.3 mL/min. The positive multiple reaction monitoring (MRM) mode were based on the most abundant product ions at m/z 312 → 165 for LMT-28, and m/z 237 → 194 for internal standard. Other parameters were the nebulizing (GS1), 50 psi; heating (GS2), 50 psi; collision energy, 23 eV for LMT-28 and 15 eV for internal standard, respectively. Analyst software version 1.4.2 (AB Sciex, USA) was used for the analysis of LMT-28 concentrations.
The plasma concentrations versus time profiles of LMT-28 in mice were analyzed by a non-compartmental model using WinNonlin software ver 5.3 (Pharsight, Mountain View, CA, USA). The pharmacokinetic parameters such as area under the plasma concentration-time curve (AUC), peak plasma concentration (Cmax) and the time to reach a peak concentration (Tmax), terminal elimination half-life (t1/2), mean residence time (MRT) after oral administration were obtained from each mouse’s plasma concentration-time plots for LMT-28. All data were expressed as the mean±standard deviation. A value of p<0.05 by student t-test or analysis of variance analysis was considered to be statistically significant.

[9] = Stability during sample handling and processing for LC-MS/MS analysis in biological fluids; conditions: plasma or microsomal reaction solution
Experimental: as §6, §7

[10] = mouse, plasma, intravenous (i.v) 5 mg/kg, n = 4
[11] = mouse, plasma, intravenous (i.v) 5 mg/kg
[12] = mouse, plasma, oral (p.o.) 5 mg/kg, n = 4
[13] = mouse, plasma, oral (p.o.) 5 mg/kg

- logP [2]: 3.65 ± 0.22
- solubility at 24 h [3]: 390 ± 120 µg/mL (≈ 1250 µM)
- half-life at 1 μM ([4]; rat liver microsomes 0.5 mg protein/mL, 1 μM, NADPH, 37°C, read-out: Liver microsomal stability half-life (t1/2, rat)): 0.255 ± 0.0233 h
- microsomal CLint at 1 μM ([4]; rat liver microsomes, calculated from rat microsomal half-life, read-out: In vitro intrinsic clearance CLint, in vitro (Rat)): 91 ± 8.4 µL/min/mg
- CLint scaled at 1 μM ([4]; rat liver microsomes, scaled from rat microsomal half-life, liver weight 40 g/kg, read-out: In vivo intrinsic clearance CLint, in vivo (Rat)): 164 ± 15 mL/min/kg
- microsomal CLint at 1 μM ([5]; human liver microsomes, calculated from human microsomal half-life, read-out: In vitro intrinsic clearance CLint, in vitro (Human)): 64 ± 8.1 µL/min/mg
- CLint scaled at 1 μM ([5]; human liver microsomes, scaled from human microsomal half-life, liver weight 21 g/kg, read-out: In vivo intrinsic clearance CLint, in vivo (Human)): 60 ± 7.7 mL/min/kg
- half-life at 1 μM ([5]; human liver microsomes 0.5 mg protein/mL, 1 μM, NADPH, 37°C, read-out: Liver microsomal stability half-life (t1/2, human)): 0.365 ± 0.0467 h
- Papp at 120 min, 10 μM [6]: 9.7 ± 1.8 ×10⁻⁶ cm/s
- Plasma protein to which the drug is bound ([7]; at 2 μM): mostly bound to serum albumin
- fraction unbound at 2 μM ([7]; plasma, read-out: Plasma protein binding (bound drug %) (converted)): 0.076
- bioavailability ([8]; male, BALB/c, mouse, plasma, oral, 5 mg/kg, oral vs intravenous, 5 mg/kg, read-out: F (bioavailability)): ~38.2%
- AUC(0-inf) [8, 10]: 677 ± 264 ng·h/mL
- MRT [8, 10]: 1.58 ± 0.32 h
- clearance [8, 10]: 144 mL/min/kg
- AUC(0-t) [8, 11]: 661 ± 253 ng·h/mL
- Vd ([8]; mouse, plasma, intravenous (i.v) 5 mg/kg, n = 4, read-out: Vss): 12.9 ± 4.66 L/kg
- half-life [8, 11]: 1.37 ± 0.29 h
- AUC(0-inf) [8, 12]: 302 ± 209 ng·h/mL
- Cmax [8, 12]: 137 ± 100 ng/mL
- MRT [8, 12]: 1.9 ± 0.55 h
- Tmax [8, 12]: 0.8 ± 0.67 h
- AUC(0-t) [8, 13]: 292 ± 202 ng·h/mL
- half-life [8, 13]: 1.13 ± 0.27 h
- Share of total AUC (AUC∞) covered by AUC8h ([8]; oral 5 mg/kg): approximately 96.7%
Structure (SMILES): C=C(CCCCC)[C@@H](O)[C@H](C)C(=O)N1C(=O)OC[C@@H]1C(C)C [LMT-28]
- Inhibition of IL-6-induced p-STAT3 expression [1]: inhibit the IL-6-induced p-STAT3 expression in a dose-dependent manner
- Stability under sample handling and processing [9]: stable under various conditions of sample handling and processing
